Reference: ChEMBL document CHEMBL1201862, “PubChem BioAssay data set” (2004)
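Assay format: 96-well plates, 48-hour exposure. The concentration for 50% growth inhibition is given as GI50.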 Active and inactive are the calls of the source. No stated cut-off is given here; in the data, active = GI50 up to about 1.1 µM and inactive = higher.

What was measured:
Assay in all cases: DTP human tumour cell line panel, 48 h
[1] = test system: NCI-H226
[2] = test system: CAKI-1
[3] = test system: UO-31
[4] = test system: SR
[5] = test system: OVCAR-4
[6] = test system: MDA-N
[7] = test system: SK-MEL-28
[8] = test system: SN12C
[9] = test system: PC-3
[10] = test system: HL-60
[11] = test system: TK-10
[12] = test system: Hs-578T
[13] = test system: COLO 205
[14] = test system: MCF7
[15] = test system: MDA-MB-231
[16] = test system: OVCAR-5
[17] = test system: T47D
[18] = test system: SF-539
[19] = test system: HOP-62
[20] = test system: Malme-3M

| Compound | GI50 [1] | GI50 [2] | GI50 [3] | GI50 [4] | GI50 [5] | GI50 [6] | GI50 [7] | GI50 [8] | GI50 [9] | GI50 [10] | GI50 [11] | GI50 [12] | GI50 [13] | GI50 [14] | GI50 [15] | GI50 [16] | GI50 [17] | GI50 [18] | GI50 [19] | GI50 [20] |
| --- | --- | --- | --- | --- | --- | --- | --- | --- | --- | --- | --- | --- | --- | --- | --- | --- | --- | --- | --- | --- |
| COc1ccc(/C=C2\CCS(=O)(=O)c3ccccc3C2=O)cc1OC | 29.1 µM (inactive) | 58.6 µM (inactive) | 31 µM (inactive) | 43.5 µM (inactive) | 17.9 µM (inactive) | 45.4 µM (inactive) | 53.1 µM (inactive) | 28.2 µM (inactive) | 27.5 µM (inactive) | 17.4 µM (inactive) | 26.9 µM (inactive) | 20.7 µM (inactive) | 48.8 µM (inactive) | 12.2 µM (inactive) | 30.8 µM (inactive) | 68.1 µM (inactive) | 32.3 µM (inactive) | 25.6 µM (inactive) | 38.5 µM (inactive) |  |
| CCC(=O)N1NC(=O)C(CC)(CC)C1=O | > 100 µM (inactive) | > 100 µM (inactive) | > 100 µM (inactive) | > 100 µM (inactive) | > 100 µM (inactive) | > 100 µM (inactive) | > 100 µM (inactive) | > 100 µM (inactive) | > 100 µM (inactive) | > 100 µM (inactive) | > 100 µM (inactive) | 83 µM (inactive) | > 100 µM (inactive) | > 100 µM (inactive) | > 100 µM (inactive) | > 100 µM (inactive) | > 100 µM (inactive) |  | > 100 µM (inactive) | 0.276 µM (active) |
| O=c1ccc(=O)n(-c2ccccc2)[nH]1 | > 100 µM (inactive) | > 100 µM (inactive) | > 100 µM (inactive) |  | > 100 µM (inactive) | > 100 µM (inactive) | > 100 µM (inactive) | > 100 µM (inactive) | > 100 µM (inactive) | > 100 µM (inactive) | > 100 µM (inactive) | > 100 µM (inactive) | > 100 µM (inactive) | > 100 µM (inactive) | > 100 µM (inactive) | > 100 µM (inactive) | > 100 µM (inactive) | > 100 µM (inactive) | > 100 µM (inactive) | > 100 µM (inactive) |
| COCN1C(=O)[C@@H]2C[C@@H](O)CN2C(=O)c2ccccc21 |  | > 100 µM (inactive) | > 100 µM (inactive) | > 100 µM (inactive) | > 100 µM (inactive) | > 100 µM (inactive) | > 100 µM (inactive) | > 100 µM (inactive) | > 100 µM (inactive) | 60.5 µM (inactive) | > 100 µM (inactive) | > 100 µM (inactive) | > 100 µM (inactive) | > 100 µM (inactive) | > 100 µM (inactive) | > 100 µM (inactive) | > 100 µM (inactive) |  | > 100 µM (inactive) | > 100 µM (inactive) |
| COc1ccc(OCc2nc3cc(C(F)(F)F)ccc3nc2-c2ccccc2)cc1 | > 100 µM (inactive) | > 100 µM (inactive) | > 100 µM (inactive) |  | > 100 µM (inactive) | > 100 µM (inactive) | > 100 µM (inactive) | > 100 µM (inactive) | > 100 µM (inactive) | > 100 µM (inactive) | > 100 µM (inactive) | > 100 µM (inactive) | > 100 µM (inactive) | > 100 µM (inactive) | 27.4 µM (inactive) | > 100 µM (inactive) | 13.5 µM (inactive) | > 100 µM (inactive) | > 100 µM (inactive) | > 100 µM (inactive) |
| O=C(O)c1ccc2c(c1)CC1(C2)Cc2cc3c(cc2C1=O)CCC3 (configuration not stated) | > 100 µM (inactive) |  | 85.1 µM (inactive) | > 100 µM (inactive) | > 100 µM (inactive) | > 100 µM (inactive) | > 100 µM (inactive) | > 100 µM (inactive) | > 100 µM (inactive) | > 100 µM (inactive) | > 100 µM (inactive) | > 100 µM (inactive) | > 100 µM (inactive) | > 100 µM (inactive) | > 100 µM (inactive) | > 100 µM (inactive) | 34.4 µM (inactive) | > 100 µM (inactive) | > 100 µM (inactive) | > 100 µM (inactive) |
| CCOC(=O)NC(Nc1ccc(F)cc1F)(C(F)(F)F)C(F)(F)F | > 100 µM (inactive) | > 100 µM (inactive) | > 100 µM (inactive) | > 100 µM (inactive) |  | > 100 µM (inactive) | > 100 µM (inactive) | > 100 µM (inactive) | > 100 µM (inactive) | > 100 µM (inactive) | > 100 µM (inactive) | > 100 µM (inactive) | > 100 µM (inactive) | > 100 µM (inactive) | > 100 µM (inactive) | > 100 µM (inactive) | > 100 µM (inactive) | > 100 µM (inactive) | > 100 µM (inactive) | > 100 µM (inactive) |
